Test results as given in US20200385371A1 (Propellon Therapeutics Inc., priority 2017, published 2020).

Tests used:
MLL1-WRAD2 complex = molecular target: T1, MLL1-WRAD2 complex (Homo sapiens, UniProt P61964); assay: MLL1-WRAD2 enzyme assay (HMT); format: biochemical
T1 construct: His tag (N); made in house; host or cells: E. coli
Description: Specifically, recombinant human MLL1 (aa 3745-3969, GenBank Accession No. NM_005933), WDR5 (aa 22-334, GenBank Accession No. NM_017588), RbBP5 (aa 1-538, GenBank Accession No. NM_005057), Ash2L (aa 2-534, GenBank Accession No. NM_001105214), and DPY-30 (aa 1-99, GenBank Accession No. NM_0325742), all with N-terminal His tag, are expressed in E. coli and mixed at a molar ratio of 1:1:1:1:2. 10 nM of the assembled MLL1-WRAD2 complex is mixed with 100 nM WRAD2 to enhance complex formation before incubation with 0.05 mg/ml nucleosome substrate and compounds (as 10 point duplicate dose response titrations) for 15 min in a buffer consisting of 50 mM Tris (pH 8.5), 5 mM MgCl2, 50 mM NaCl, 1 mM DTT, 0.01% Brij-35, and 1% DMSO. Reaction is initiated with 1 μM 3H-SAM and incubated for 1 hour at 30° C. Reaction mixture is transferred to P81 filter-paper and washed with PBS before detection.

MV4-11 cells = assay: Cell proliferation assay (ATPlite); format: cell-based; details: Homo sapiens, MV4-11; Table 2
Summary of the method: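 Cells seeded at 1,000/well in Alpha-MEM with 10% FBS, treated with compound over a 10-point range (top 10 μM) or DMSO. Grown five days at 37° C, 5% CO2; viability by ATPlite luminescence.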

WDR5 = WDR5 (Homo sapiens, UniProt P61964); assay: Surface Plasmon Resonance (SPR) assay; format: binding; set-up: Full length WDR5 with an N-terminal His tag and C-terminal AviTag; His tag (N); made in house; host or cells: E. coli; details: Table 2, effect of difluoro substitution; read-out: KD (SPR)
Summary of the method: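 Full-length biotinylated WDR5 (N-His, C-AviTag, E. coli) captured (~3000 RU) on streptavidin SA chip; Biacore T200. HBS-EP pH 7.4 plus 5% DMSO running buffer, 40 μl/min.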

Row | IC50 (MLL1-WRAD2 complex; Table 2) [nM] | IC50 (MV4-11 cells) [nM] | Kd (WDR5) [nM] | IC50 (MLL1-WRAD2 complex; Table 2, no unit printed in the cell) [nM] | Compound
1 | 63 | 30 | 3.7 |  | C[C@@H]1CN(c2cc(F)c(-c3cnc(N4CCOCC4)nc3)c(F)c2NC(=O)c2c[nH]c(=O)cc2C(F)(F)F)C[C@H](C)N1C [drawing 479, reference compound]
2 | 41 | 31 | 1.8 |  | C[C@@H]1CN(c2ncc(-c3c(F)cc(N4C[C@@H](C)N(C)[C@@H](C)C4)c(NC(=O)c4c[nH]c(=O)cc4C(F)(F)F)c3F)cn2)C[C@H](C)O1 [drawing 478, reference compound]
3 | 154 |  | 1.1 |  | C[C@@H]1CN(c2ccc(-c3cnc(N4CCOCC4)nc3)c(F)c2NC(=O)c2c[nH]c(=O)cc2C(F)(F)F)C[C@H](C)N1C [reference compound]
4 |  |  | 0.4 | 150 | C[C@@H]1CN(c2ncc(-c3cc(NC(=O)c4c[nH]c(=O)cc4C(F)(F)F)c(N4C[C@@H](C)N(C)[C@@H](C)C4)cc3F)cn2)C[C@H](C)O1 [reference compound]
